The results in this text go back to patent publication US8569281B2, “Compounds and their administration for treating a neurodegenerative disease as well as a method for identifying a compound capable of inhibiting a kinase, such as LRRK” (Medical Research Council Technology, priority 2010, dated 2013).

LRRK2, sequence (Q5S007 whole entry G2019S): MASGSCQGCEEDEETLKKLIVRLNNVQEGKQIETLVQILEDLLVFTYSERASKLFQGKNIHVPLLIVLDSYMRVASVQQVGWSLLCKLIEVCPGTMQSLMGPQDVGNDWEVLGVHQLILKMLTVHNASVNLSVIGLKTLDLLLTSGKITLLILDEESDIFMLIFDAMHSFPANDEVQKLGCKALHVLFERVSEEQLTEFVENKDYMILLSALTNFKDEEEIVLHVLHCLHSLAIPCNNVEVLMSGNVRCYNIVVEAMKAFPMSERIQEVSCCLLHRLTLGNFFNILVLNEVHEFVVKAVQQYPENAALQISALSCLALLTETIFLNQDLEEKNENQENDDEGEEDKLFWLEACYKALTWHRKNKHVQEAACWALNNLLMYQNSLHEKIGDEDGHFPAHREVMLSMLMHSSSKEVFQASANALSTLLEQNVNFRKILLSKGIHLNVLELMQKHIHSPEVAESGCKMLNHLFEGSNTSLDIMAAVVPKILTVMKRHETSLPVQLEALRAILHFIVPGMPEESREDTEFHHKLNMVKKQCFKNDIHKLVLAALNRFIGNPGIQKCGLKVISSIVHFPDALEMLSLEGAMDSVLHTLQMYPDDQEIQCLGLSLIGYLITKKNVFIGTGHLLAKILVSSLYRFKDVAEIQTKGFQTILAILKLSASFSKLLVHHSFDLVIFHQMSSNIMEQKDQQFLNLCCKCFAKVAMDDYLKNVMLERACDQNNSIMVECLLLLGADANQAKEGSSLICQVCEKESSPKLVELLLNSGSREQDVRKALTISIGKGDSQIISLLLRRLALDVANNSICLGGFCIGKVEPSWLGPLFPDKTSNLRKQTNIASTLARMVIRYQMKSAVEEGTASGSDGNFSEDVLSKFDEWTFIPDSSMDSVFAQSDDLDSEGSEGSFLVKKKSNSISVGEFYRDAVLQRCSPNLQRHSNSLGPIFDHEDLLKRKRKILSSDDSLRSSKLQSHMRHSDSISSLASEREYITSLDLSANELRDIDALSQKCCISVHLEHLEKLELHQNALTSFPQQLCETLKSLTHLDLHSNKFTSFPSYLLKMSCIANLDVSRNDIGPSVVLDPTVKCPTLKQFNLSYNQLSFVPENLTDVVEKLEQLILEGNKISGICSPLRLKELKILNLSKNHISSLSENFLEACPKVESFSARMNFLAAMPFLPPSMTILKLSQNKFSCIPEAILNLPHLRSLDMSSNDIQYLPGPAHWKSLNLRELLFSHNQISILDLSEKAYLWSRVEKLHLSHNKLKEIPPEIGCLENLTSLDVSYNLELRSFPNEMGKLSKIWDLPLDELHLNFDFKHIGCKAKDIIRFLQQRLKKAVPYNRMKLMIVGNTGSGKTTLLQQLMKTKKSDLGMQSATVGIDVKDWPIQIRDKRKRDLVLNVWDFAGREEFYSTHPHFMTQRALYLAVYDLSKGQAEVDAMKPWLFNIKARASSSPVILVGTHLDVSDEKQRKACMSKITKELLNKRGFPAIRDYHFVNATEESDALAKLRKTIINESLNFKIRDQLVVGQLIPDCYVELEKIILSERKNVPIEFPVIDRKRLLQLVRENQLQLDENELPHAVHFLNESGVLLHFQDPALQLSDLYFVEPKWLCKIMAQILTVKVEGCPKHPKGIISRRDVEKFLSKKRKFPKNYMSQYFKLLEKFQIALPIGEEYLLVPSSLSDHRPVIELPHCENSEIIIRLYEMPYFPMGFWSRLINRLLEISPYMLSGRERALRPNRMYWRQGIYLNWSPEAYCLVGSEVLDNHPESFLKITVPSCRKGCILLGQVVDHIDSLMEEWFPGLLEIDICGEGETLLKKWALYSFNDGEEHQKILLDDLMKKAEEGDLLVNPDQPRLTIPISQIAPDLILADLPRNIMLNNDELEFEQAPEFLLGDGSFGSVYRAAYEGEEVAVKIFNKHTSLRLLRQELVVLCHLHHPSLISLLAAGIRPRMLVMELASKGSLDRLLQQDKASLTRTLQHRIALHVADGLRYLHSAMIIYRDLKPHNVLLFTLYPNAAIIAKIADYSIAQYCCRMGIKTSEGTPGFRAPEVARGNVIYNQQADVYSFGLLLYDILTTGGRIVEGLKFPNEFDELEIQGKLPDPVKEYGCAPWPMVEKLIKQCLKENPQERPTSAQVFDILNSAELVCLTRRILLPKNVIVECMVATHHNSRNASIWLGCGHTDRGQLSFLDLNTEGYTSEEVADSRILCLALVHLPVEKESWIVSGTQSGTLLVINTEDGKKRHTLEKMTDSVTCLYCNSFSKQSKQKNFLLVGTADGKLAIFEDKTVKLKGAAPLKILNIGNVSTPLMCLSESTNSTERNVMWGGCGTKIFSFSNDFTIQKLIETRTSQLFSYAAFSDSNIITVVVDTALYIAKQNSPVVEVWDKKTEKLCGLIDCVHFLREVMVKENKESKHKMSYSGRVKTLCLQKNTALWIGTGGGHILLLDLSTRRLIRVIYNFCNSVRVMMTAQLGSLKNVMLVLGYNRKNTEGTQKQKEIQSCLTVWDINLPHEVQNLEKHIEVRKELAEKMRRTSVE

This test concerns the target LRRK2 (Homo sapiens (Human), UniProt Q5S007). In words: In Vitro LRRK2 Assay (LabChip 3000, fluorescently-labeled peptide substrate). The class given is biochemical. The note with it: ATP 130 μM, substrate 1 μM, 2 hours, ambient temperature; LRRK2 variant not given; read-out: Ki (μM), affinity values for LRRK2.
On to `c1ccc2ncc(-c3n[nH]c4ccnc(OC5CCOCC5)c34)cc2c1` [Example 150, 3-(4-(Tetrahydro-2H-pyran-4-yloxy)-1H-pyrazolo[4,3-c]pyridin-3-yl)quinoline], for which the Ki was found to be 0.012 µM.
With `c1cc(-c2n[nH]c3ccnc(OC4CCOCC4)c23)cc(N2CCC2)n1` [Example 114, 3-(2-(Azetidin-1-yl)pyridin-4-yl)-4-(tetrahydro-2H-pyran-4-yloxy)-1H-pyrazolo[4,3-c]pyridine] the figure was 0.009 µM; with `CC(C)Oc1nccc2[nH]nc(-c3cc(C(=O)N4CCCCC4)n(C(C)C)c3)c12` [Example 56, (4-(4-Isopropoxy-1H-pyrazolo[4,3-c]pyridin-3-yl)-1-isopropyl-1H-pyrrol-2-yl)(piperidin-1-yl)methanone], 0.019 µM; with `CC(C)n1cc(-c2n[nH]c3ccnc(OC4CCOCC4)c23)cc1C(=O)NC1COC1` [Example 70, 1-isopropyl-N-(oxetan-3-yl)-4-(4-(tetrahydro-2H-pyran-4-yloxy)-1H-pyrazolo[4,3-c]pyridin-3-yl)-1H-pyrrole-2-carboxamide], 0.003 µM.
With `Cn1cc(-c2cc(-c3n[nH]c4ccnc(OC5CCOCC5)c34)ccn2)cn1` [Example 116, 3-(2-(1-Methyl-1H-pyrazol-4-yl)pyridin-4-yl)-4-(tetrahydro-2H-pyran-4-yloxy)-1H-pyrazolo[4,3-c]pyridine], the inhibition constant Ki was 0.01 µM.
For `c1cc(-c2n[nH]c3ccnc(OC4CCOCC4)c23)nc(N2CCOCC2)n1` [Example 84, 4-(4-(4-(tetrahydro-2H-pyran-4-yloxy)-1H-pyrazolo[4,3-c]pyridin-3-yl)pyrimidin-2-yl)morpholine], the Ki amounted to 0.065 µM.
With `CC(C)n1cc(Nc2[nH]nc3ccnc(OC4CCOCC4)c23)cn1` [Example 164, N-(1-Isopropyl-1H-pyrazol-4-yl)-4-(tetrahydro-2H-pyran-4-yloxy)-1H-pyrazolo[4,3-c]pyridin-3-amine] the figure was 0.03 µM; with `c1cc2[nH]nc(-c3ccc4nc[nH]c4c3)c2c(OC2CCOCC2)n1` [Example 139, 3-(1H-Benzo[d]imidazol-6-yl)-4-(tetrahydro-2H-pyran-4-yloxy)-1H-pyrazolo[4,3-c]pyridine], 0.014 µM; with `Cc1[nH]nc2cc(C3CC3)nc(OC3CCCCC3)c12` [Example 148, 4-(Cyclohexyloxy)-6-cyclopropyl-3-methyl-1H-pyrazolo[4,3-c]pyridine], 0.271 µM.
With `FC(F)(F)COc1nccc2[nH]nc(-c3ccnc(N4CCOCC4)c3)c12` [Example 74, 4-(4-(4-(2,2,2-Trifluoroethoxy)-1H-pyrazolo[4,3-c]pyridin-3-yl)pyridin-2-yl)morpholine] the figure was 0.031 µM; with `CC(C)Oc1nccc2[nH]nc(-c3cc(C(=O)NC4COC4)n(C(C)C)c3)c12` [Example 59, 4-(4-Isopropoxy-1H-pyrazolo[4,3-c]pyridin-3-yl)-1-isopropyl-N-(oxetan-3-yl)-1H-pyrrole-2-carboxamide], 0.0024 µM; with `COc1nccc2[nH]nc(-c3ccnc(N4C[C@@H]5C[C@H]4CO5)c3)c12` [Example 118, (1S,4S)-5-(4-(4-Methoxy-1H-pyrazolo[4,3-c]pyridin-3-yl)pyridin-2-yl)-2-oxa-5-azabicyclo[2.2.1]heptanes], 0.051 µM.
With `c1cc2[nH]nc(-c3cnn([C@@H]4CCOC4)c3)c2c(OC2CCOCC2)n1` [Example 146, (R)-4-(Tetrahydro-2H-pyran-4-yloxy)-3-(1-(tetrahydrofuran-3-yl)-1H-pyrazol-4-yl)-1H-pyrazolo[4,3-c]pyridine] the figure was 0.005 µM.
Regarding `c1cc2[nH]nc(-c3cnn([C@H]4CCOC4)c3)c2c(OC2CCOCC2)n1` [Example 147, (S)-4-(tetrahydro-2H-pyran-4-yloxy)-3-(1-(tetrahydrofuran-3-yl)-1H-pyrazol-4-yl)-1H-pyrazolo[4,3-c]pyridine], the Ki is 0.003 µM.
With “3-(1-isopropyl-1H-benzo[d]imidazol-5-yl)-4-(tetrahydro-2H-pyran-4-yloxy)-1H-pyrazolo[4,3-c]pyridine [Example 123]” the figure was 0.02 µM.
For `FC(F)(F)Cn1cc(-c2n[nH]c3ccnc(OC4CCOCC4)c23)cn1` [Example 96, 4-(tetrahydro-2H-pyran-4-yloxy)-3-(1-(2,2,2-trifluoroethyl)-1H-pyrazol-4-yl)-1H-pyrazolo[4,3-c]pyridine], the Ki stood at 0.006 µM.
As to `N#Cc1cc(-c2n[nH]c3ccnc(OC4CCOCC4)c23)ccn1` [Example 174, 4-(4-(tetrahydro-2H-pyran-4-yloxy)-1H-pyrazolo[4,3-c]pyridin-3-yl)picolinonitrile], the Ki was 0.13 µM.
`N#CCc1cccc(-c2[nH]nc3ccnc(OC4CCOCC4)c23)c1` [Example 151, 2-(3-(4-(Tetrahydro-2H-pyran-4-yloxy)-1H-pyrazolo[4,3-c]pyridin-3-yl)phenyl)acetonitrile]: the Ki was found to be 0.017 µM.
With `CC[C@@H](C)Oc1nccc2[nH]nc(C3CC3)c12` [Example 29, 3-Cyclopropyl-4-[(2R)-butan-2-yloxy)-1H-pyrazolo[4,3-c]pyridine] the figure was 0.078 µM; with `CC(C)Oc1nccc2[nH]nc(-c3cc(C(=O)N4CCCC4)n(C(C)C)c3)c12` [Example 216, [4-(4-Isopropoxy-1H-pyrazolo[4,3-c]pyridin-3-yl)-1-isopropyl-1H-pyrrol-2-yl]-pyrrolidin-1-yl-methanone], 0.006 µM; with `CN1CCN(c2cc(-c3n[nH]c4ccnc(OC5CCOCC5)c34)ccn2)CC1` [Example 14, 3-[2-(4-Methylpiperazin-1-yl)pyridin-4-yl]-4-(tetrahydro-2H-pyran-4-yloxy)-1H-pyrazolo[4,3-c]pyridine], 0.006 µM.
For the compound `CC(C)Oc1nccc2[nH]nc(-c3ccnc(C(=O)N4C[C@@H]5C[C@H]4CO5)c3)c12` [Example 220, [4-(4-Isopropoxy-1H-pyrazolo[4,3-c]pyridin-3-yl)-pyridin-2-yl]-(1S,4S)-2-oxa-5-aza-bicyclo[2.2.1]hept-5-yl-methanone], the Ki came out at 0.384 µM.
With `COc1nccc2[nH]nc(-c3cnn(C4CCOCC4)c3)c12` [Example 184, 4-methoxy-3-(1-(tetrahydro-2H-pyran-4-yl)-1H-pyrazol-4-yl)-1H-pyrazolo[4,3-c]pyridine] the figure was 0.033 µM.
